Assay results: article PMC6572064, “Discovery of 2-(1-(3-(4-Chloroxyphenyl)-3-oxo- propyl)pyrrolidine-3-yl)-1H-benzo[d]imidazole-4-carboxamide: A Potent Poly(ADP-ribose) Polymerase (PARP) Inhibitor for Treatment of Cancer” (Molecules, 2019)
Read-outs that look alike come from different tables or passages of the source.

Experiments:
PARP-1 = biological target: T1, PARP-1 (Homo sapiens, UniProt P09874); experiment: PARP-1 inhibition assay (PARP-1 Chemiluminescent Assay Kit, BPS Bioscience); assay type: biochemical; conditions: 10 nM compound
T1 construct: purchased BPS Bioscience 80569
Experimental: (§1) The PARP-1 and PARP-2 inhibition assays were performed in outsourcing, by a CRO company, Shanghai Medicilon Inc. (Shanghai, China). […] Briefly, PARP-1 or PARP-2 biotinylated substrate was incubated with compounds or solvent control at varying concentrations and an assay buffer containing the PARP-1 or PARP-2 enzyme.

[1] = system: MDA-MB-436 (a BRCA-1-mutated breast cancer cell line); experiment: Cell proliferation assay, three-day, CellTiter-Glo, MDA-MB-436; assay type: cell-based; conditions: for inhibition at 0.00508 µM: MDA-MB-436, MDA-MB-436, Conc. 0.00508 uM; for inhibition at 0.0152 µM: MDA-MB-436, MDA-MB-436, Conc. 0.0152 uM; for inhibition at 0.0457 µM: MDA-MB-436, MDA-MB-436, Conc. 0.0457 uM; for inhibition at 0.41 µM: MDA-MB-436, MDA-MB-436, Conc. 0.41 uM; for inhibition at 1.23 µM: MDA-MB-436, MDA-MB-436, Conc. 1.23 uM; for inhibition at 3.7 µM: MDA-MB-436, MDA-MB-436, Conc. 3.70 uM
Experimental: (§2) A three-day assay was conducted. A cell suspension was prepared. Cell density was counted by an automated cell counter and then diluted to the required density, according to seeding density. 50 μL cells were seeded into 384-well plate in growth medium according to the plate map. The cells were incubated at 37 °C, 5% CO2 overnight.
(§3) 200× compound solution in DMSO was prepared and diluted with growth medium to 26× final concentration by addition of 26 μL 200× compounds to 174 μL growth medium. Then 2 μL of diluted compound solution was added to cells and the cell was incubated at 37 °C, 5% CO2 for 72 h.
(§4) The assay plate was equilibrated to room temperature prior to measurement. 15 μL of CellTiter-Glo Reagent was added into each well and the contents were mixed for 2 min on an orbital shaker to induce cell lysis. The cells were incubated at room temperature for 60 min to stabilize luminescent signal. Luminescence was recorded on the Envision system.

[2] = system: CAPAN-1 (a BRCA-2-mutated pancreatic cancer cell line); experiment: Cell proliferation assay, three-day, CellTiter-Glo, CAPAN-1; assay type: cell-based; conditions: for inhibition at 0.00508 µM: CAPAN-1, 0.00508 uM; for inhibition at 0.0152 µM: CAPAN-1, 0.0152 uM; for inhibition at 0.0457 µM: CAPAN-1, 0.0457 uM; for inhibition at […]: CAPAN-1, 0.14 uM; for inhibition at 0.41 µM: CAPAN-1, 0.41 uM; for inhibition at 1.23 µM: CAPAN-1, 1.23 uM; for inhibition at 3.7 µM: CAPAN-1, 3.70 uM; for inhibition at 11.11 µM: CAPAN-1, Conc. 11.11 uM; for inhibition at 33.33 µM: CAPAN-1, Conc. 33.33 uM; for inhibition at 100 µM: CAPAN-1, Conc. 100.00 uM
Experimental: as §2, §3, §4

PARP-2 = biological target: T2, PARP-2 (Homo sapiens, UniProt Q9UGN5); experiment: PARP-2 inhibition assay (PARP-2 Chemiluminescent Assay Kit, BPS Bioscience); assay type: biochemical; conditions: 10 nM compound
T2 construct: purchased BPS Bioscience 80552
Experimental: as §1

[3] = Homo sapiens, replicate 1, read-out: Inh % 1
[4] = Homo sapiens, replicate 2, read-out: Inh % 2
[5] = CAPAN-1, curve fit of Inh %, plate 1

T2 sequence (Q9UGN5 whole entry): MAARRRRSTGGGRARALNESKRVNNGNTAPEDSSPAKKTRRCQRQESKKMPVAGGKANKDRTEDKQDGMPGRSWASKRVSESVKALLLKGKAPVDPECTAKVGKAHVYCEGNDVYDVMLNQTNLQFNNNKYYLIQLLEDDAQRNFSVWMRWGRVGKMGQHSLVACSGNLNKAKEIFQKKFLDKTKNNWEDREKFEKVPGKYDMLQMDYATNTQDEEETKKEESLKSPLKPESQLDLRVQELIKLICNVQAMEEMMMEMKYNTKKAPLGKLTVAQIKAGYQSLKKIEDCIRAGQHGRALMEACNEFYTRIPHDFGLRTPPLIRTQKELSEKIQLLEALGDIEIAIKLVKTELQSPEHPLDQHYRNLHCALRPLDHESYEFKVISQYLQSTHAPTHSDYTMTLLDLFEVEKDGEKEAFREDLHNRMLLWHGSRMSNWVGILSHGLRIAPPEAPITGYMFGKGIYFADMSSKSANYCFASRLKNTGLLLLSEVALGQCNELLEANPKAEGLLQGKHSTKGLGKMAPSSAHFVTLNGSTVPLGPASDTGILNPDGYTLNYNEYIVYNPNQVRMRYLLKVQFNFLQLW
T1 sequence (P09874 whole entry): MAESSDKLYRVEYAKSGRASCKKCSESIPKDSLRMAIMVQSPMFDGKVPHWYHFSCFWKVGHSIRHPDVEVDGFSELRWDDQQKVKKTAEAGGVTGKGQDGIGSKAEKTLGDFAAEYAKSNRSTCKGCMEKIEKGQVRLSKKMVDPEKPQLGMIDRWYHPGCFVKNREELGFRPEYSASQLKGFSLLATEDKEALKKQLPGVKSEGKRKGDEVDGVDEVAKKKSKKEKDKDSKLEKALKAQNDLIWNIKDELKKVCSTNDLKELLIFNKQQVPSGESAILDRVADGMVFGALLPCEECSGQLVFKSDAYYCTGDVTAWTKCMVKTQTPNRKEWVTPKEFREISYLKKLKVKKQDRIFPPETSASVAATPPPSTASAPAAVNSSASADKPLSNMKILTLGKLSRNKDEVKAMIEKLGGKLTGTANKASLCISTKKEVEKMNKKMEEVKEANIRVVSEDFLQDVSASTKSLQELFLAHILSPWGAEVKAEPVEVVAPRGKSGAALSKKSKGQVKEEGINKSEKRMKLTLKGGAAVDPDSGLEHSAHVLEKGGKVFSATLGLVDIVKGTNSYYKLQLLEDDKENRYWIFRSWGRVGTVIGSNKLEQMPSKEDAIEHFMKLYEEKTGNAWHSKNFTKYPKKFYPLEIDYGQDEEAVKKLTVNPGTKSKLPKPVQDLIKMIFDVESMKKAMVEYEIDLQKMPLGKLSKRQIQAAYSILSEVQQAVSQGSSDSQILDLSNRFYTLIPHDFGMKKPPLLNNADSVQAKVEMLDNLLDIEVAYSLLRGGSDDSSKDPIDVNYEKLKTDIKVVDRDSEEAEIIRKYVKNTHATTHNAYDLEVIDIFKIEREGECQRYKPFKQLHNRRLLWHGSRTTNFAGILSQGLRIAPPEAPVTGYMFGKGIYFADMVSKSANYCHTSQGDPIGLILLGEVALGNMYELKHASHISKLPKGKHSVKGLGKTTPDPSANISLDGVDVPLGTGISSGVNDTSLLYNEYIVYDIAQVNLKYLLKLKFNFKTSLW

`NC(=O)c1cccc2[nH]c(C3CCN(CC(=O)Nc4ccccc4)C3)nc12` (centres unmarked) [Compound 5ca, 2-(1-(2-Oxo-2-(phenylamino)ethyl)pyrrolidin-3-yl)-1H-benzo[d]imidazole-4-carboxamide] showed an inhibition at 0.01 µM (PARP-1; supplement sheet, read-out: 10 nM inhibition% PAPR-1) of 17.6%, an inhibition at 0.01 µM (PARP-1; read-out: PARP-1 Inhibition % (10 nM)) of 17.6% and an inhibition at 0.00508 µM [1, 3] of -8.8%. It also gave an inhibition at 0.00508 µM [1, 4] of -5.8%, an inhibition at 0.0152 µM [1, 3] of -0.8% and an inhibition at 0.0152 µM [1, 4] of -6.8%. It also gave an inhibition at 0.0457 µM [1, 3] of -1.6%, an inhibition at 0.0457 µM [1, 4] of -6.8% and an inhibition at 0.41 µM [1, 3] of 2.8%. It also gave an inhibition at 0.41 µM [1, 4] of -7.6%, an inhibition at 1.23 µM [1, 3] of 5.5% and an inhibition at 1.23 µM [1, 4] of -1.8%. For the same compound, the inhibition at 3.7 µM [1, 3] was 10.4%, the inhibition at 3.7 µM [1, 4] was 0.639% and the inhibition at 11.11 µM ([1]; Homo sapiens, MDA-MB-436, MDA-MB-436, Conc. 11.11 uM, duplicate wells (Inh % 1, Inh % 2), read-out: Inh %) was 15.1%. The inhibition at 33.33 µM ([1]; Homo sapiens, MDA-MB-436, MDA-MB-436, Conc. 33.33 uM, duplicate wells (Inh % 1, Inh % 2), read-out: Inh %) was 68.9%, the inhibition at 100 µM ([1]; Homo sapiens, MDA-MB-436, MDA-MB-436, Conc. 100.00 uM, duplicate wells (Inh % 1, Inh % 2), read-out: Inh %) was 93.3% and the IC50 ([1]; Homo sapiens, MDA-MB-436, 72 h, CellTiter-Glo, read-out: MDA-MB-436 IC50) was 22.9 µM. The IC50 ([1]; Homo sapiens, MDA-MB-436, 72 h, supplement Summary sheet, read-out: IC50) was 22.9 µM, the IC50 ([1]; Homo sapiens, MDA-MB-436, curve fit list, no unit in the cell, concentration in uM, read-out: IC50) was 22.9 µM and the Inh % ([1]; MDA-MB-436, Conc. 11.11 uM, duplicate wells (Inh % 1, Inh % 2)) was 9.5%. The Inh % ([1]; MDA-MB-436, Conc. 33.33 uM, duplicate wells (Inh % 1, Inh % 2)) was 56.4%, the Inh % ([1]; MDA-MB-436, Conc. 100.00 uM, duplicate wells (Inh % 1, Inh % 2)) was 81.3% and the Bottom ([1]; MDA-MB-436, curve fit parameter (Inh %)) was -3.40. It also gave a Top ([1]; MDA-MB-436, curve fit parameter (Inh %), '= 100.0' is a constrained value) of 92.23, a LogIC50 ([1]; MDA-MB-436, curve fit, concentration axis Log (uM)) of 1.36 and a Bottom [2, 5] of 11.48. The HillSlope [2, 5] was 1.045, the Top [2, 5] was “= 100.0” and the LogIC50 ([2]; CAPAN-1, curve fit, plate 1) was 2.027 Log (uM). The IC50 ([2]; Homo sapiens, CAPAN-1, 72 h, CellTiter-Glo, read-out: CAPAN-1 IC50) was greater than 100 µM, the inhibition at 0.00508 µM [2, 3] was -2.6% and the inhibition at 0.00508 µM [2, 4] was 19.1%. The inhibition at 0.0152 µM [2, 3] was -2.3%, the inhibition at 0.0152 µM [2, 4] was 9.8% and the inhibition at 0.0457 µM [2, 3] was 6.6%. The inhibition at 0.0457 µM [2, 4] was 22%, the inhibition at […] [2, 3] was 7.4% and the inhibition at […] [2, 4] was 15.6%. It also gave an inhibition at 0.41 µM [2, 3] of 22.5%, an inhibition at 0.41 µM [2, 4] of 10.9% and an inhibition at 1.23 µM [2, 3] of 21.1%. For the same compound, the inhibition at 1.23 µM [2, 4] was 9.6%, the inhibition at 3.7 µM [2, 3] was 8.2% and the inhibition at 3.7 µM [2, 4] was 19.9%. It also gave an inhibition at 11.11 µM [2, 3] of 22.1%, an inhibition at 11.11 µM [2, 4] of 20.4% and an inhibition at 33.33 µM [2, 3] of 29.2%. It also gave an inhibition at 33.33 µM [2, 4] of 28.3%, an inhibition at 100 µM [2, 3] of 59.9% and an inhibition at 100 µM [2, 4] of 51.1%. The inhibition at 0.01 µM (PARP-2; supplement sheet, read-out: 10 nM inhibition% PAPR-2) was 34.5% and the inhibition at 0.01 µM (PARP-2; read-out: PARP-2 Inhibition % (10 nM)) was 34.5%.
